# Values quoted from earlier work, collected in patent US12472190B2, “Pharmaceutical compositions” (CIPLA Limited, priority 2010, dated 2025).
# Settings: relative to S (−) isomer of budesonide; no test described
smiles,measurement,value
CCC[C@@H]1O[C@@H]2C[C@H]3[C@@H]4CCC5=CC(=O)C=C[C@]5(C)[C@H]4[C@@H](O)C[C@]3(C)[C@]2(C(=O)CO)O1 [R (+) budesonide],anti-inflammatory properties as compared to S (−) isomer,nearly three times as strong
